Experimental data published in ChEMBL document CHEMBL3526130, “An evaluation of using rat-derived single-dose neuropharmacokinetic parameters to project accurately large animal unbound brain drug concentrations” (Drug Metab Dispos, 2012).
Values belong to the compound of their own block, whether it stands above or below them.

Legend:
[1] = AUC(0 to 2 hrs) in Sprague-Dawley rat plasma at 1 mg/kg, sc by LC-MS/MS analysis; type: ADME, organism-based; parameters: time < 2 hr, dose 1 mg/kg, route subcutaneous
[2] = AUC(0 to infinity) in Sprague-Dawley rat plasma at 1 mg/kg, sc by LC-MS/MS analysis; type: ADME, organism-based; parameters: time infinity, dose 1 mg/kg, route subcutaneous
[3] = AUC(0 to 2 hrs) in Sprague-Dawley rat cerebrospinal fluid at 1 mg/kg, sc by LC-MS/MS analysis; type: ADME, organism-based; parameters: time < 2 hr, dose 1 mg/kg, route subcutaneous
[4] = AUC(0 to infinity) in Sprague-Dawley rat cerebrospinal fluid at 1 mg/kg, sc by LC-MS/MS analysis; type: ADME, organism-based; parameters: time infinity, dose 1 mg/kg, route subcutaneous
[5] = Ratio of drug level in brain to plasma in Sprague-Dawley rat at 1 mg/kg, sc by LC-MS/MS analysis; type: ADME, organism-based; parameters: dose 1 mg/kg, route subcutaneous; conditions: read-out: BPR
Nucleic Acid [6] = assay: Ratio of drug level in cerebrospinal fluid to unbound plasma concentration in Sprague-Dawley rat at 1 mg/kg, sc by LC-MS/MS analysis; type: ADME, organism-based; parameters: dose 1 mg/kg, route subcutaneous; conditions: in vivo
[7] = Ratio of unbound brain concentration to drug level in cerebrospinal fluid in Sprague-Dawley rat at 1 mg/kg, sc by LC-MS/MS analysis; type: ADME, organism-based; parameters: dose 1 mg/kg, route subcutaneous; conditions: in vivo
[8] = Ratio of unbound drug level in brain to plasma in Sprague-Dawley rat at 1 mg/kg, sc by LC-MS/MS analysis; type: ADME, organism-based; parameters: dose 1 mg/kg, route subcutaneous
[9] = Unbound fraction in Beagle dog plasma at 0.5 mg/kg, po by LC-MS/MS analysis; type: ADME, organism-based, Canis lupus familiaris; parameters: dose 0.5 mg/kg, route oral
[10] = Unbound fraction in Beagle dog brain at 0.5 mg/kg, po by LC-MS/MS analysis; type: ADME, organism-based, Canis lupus familiaris; parameters: dose 0.5 mg/kg, route oral
[11] = Unbound fraction in cynomolgus monkey plasma at 0.1 mg/kg, sc by LC-MS/MS analysis; type: ADME, organism-based, Macaca fascicularis; parameters: dose 0.1 mg/kg, route subcutaneous
[12] = Unbound fraction in cynomolgus monkey brain at 0.1 mg/kg, sc by LC-MS/MS analysis; type: ADME, organism-based, Macaca fascicularis; parameters: dose 0.1 mg/kg, route subcutaneous
[13] = AUC(0 to 2 hrs) in Sprague-Dawley rat brain at 1 mg/kg, sc by LC-MS/MS analysis; type: ADME, organism-based; parameters: time < 2 hr, dose 1 mg/kg, route subcutaneous
[14] = AUC(0 to infinity) in Sprague-Dawley rat brain at 1 mg/kg, sc by LC-MS/MS analysis; type: ADME, organism-based; parameters: time infinity, dose 1 mg/kg, route subcutaneous
[15] = Ratio of unbound drug level in brain to plasma in Beagle dog at 0.5 mg/kg, po by LC-MS/MS analysis; type: ADME, organism-based, Canis lupus familiaris; parameters: dose 0.5 mg/kg, route oral; conditions: brain and plasma
[16] = Ratio of unbound drug level in brain to plasma in cynomolgus monkey at 0.1 mg/kg, sc by LC-MS/MS analysis; type: ADME, organism-based, Macaca fascicularis; parameters: dose 0.1 mg/kg, route subcutaneous; conditions: brain and plasma
[17] = Ratio of drug level in brain to plasma in cynomolgus monkey at 0.1 mg/kg, sc by LC-MS/MS analysis; type: ADME, organism-based, Macaca fascicularis; parameters: dose 0.1 mg/kg, route subcutaneous; conditions: brain and plasma, read-out: BPR
Nucleic Acid [18] = assay: Ratio of drug level in cerebrospinal fluid to unbound plasma concentration in Beagle dog at 0.5 mg/kg, po by LC-MS/MS analysis; type: ADME, organism-based, Canis lupus familiaris; parameters: dose 0.5 mg/kg, route oral; conditions: in vivo
Nucleic Acid [19] = assay: Ratio of drug level in cerebrospinal fluid to unbound plasma concentration in cynomolgus monkey at 0.1 mg/kg, sc by LC-MS/MS analysis; type: ADME, organism-based, Macaca fascicularis; parameters: dose 0.1 mg/kg, route subcutaneous; conditions: in vivo
[20] = Ratio of unbound brain concentration to drug level in cerebrospinal fluid in Beagle dog at 0.5 mg/kg, po by LC-MS/MS analysis; type: ADME, organism-based, Canis lupus familiaris; parameters: dose 0.5 mg/kg, route oral; conditions: in vivo
[21] = Ratio of unbound brain concentration to drug level in cerebrospinal fluid in cynomolgus monkey at 0.1 mg/kg, sc by LC-MS/MS analysis; type: ADME, organism-based, Macaca fascicularis; parameters: dose 0.1 mg/kg, route subcutaneous; conditions: in vivo
[22] = AUC(0 to 7 hrs) in Sprague-Dawley rat plasma at 3 mg/kg, sc by LC-MS/MS analysis; type: ADME, organism-based; parameters: time < 7 hr, dose 3 mg/kg, route subcutaneous
[23] = AUC(0 to infinity) in Sprague-Dawley rat plasma at 3 mg/kg, sc by LC-MS/MS analysis; type: ADME, organism-based; parameters: time infinity, dose 3 mg/kg, route subcutaneous
[24] = AUC(0 to 7 hrs) in Sprague-Dawley rat cerebrospinal fluid at 3 mg/kg, sc by LC-MS/MS analysis; type: ADME, organism-based; parameters: time < 7 hr, dose 3 mg/kg, route subcutaneous
[25] = AUC(0 to infinity) in Sprague-Dawley rat cerebrospinal fluid at 3 mg/kg, sc by LC-MS/MS analysis; type: ADME, organism-based; parameters: dose 3 mg/kg, route subcutaneous, time infinity
[26] = Ratio of drug level in brain to plasma in Sprague-Dawley rat at 3 mg/kg, sc by LC-MS/MS analysis; type: ADME, organism-based; parameters: dose 3 mg/kg, route subcutaneous; conditions: read-out: BPR
Nucleic Acid [27] = assay: Ratio of drug level in cerebrospinal fluid to unbound plasma concentration in Sprague-Dawley rat at 3 mg/kg, sc by LC-MS/MS analysis; type: ADME, organism-based; parameters: dose 3 mg/kg, route subcutaneous; conditions: in vivo
[28] = Ratio of unbound brain concentration to drug level in cerebrospinal fluid in Sprague-Dawley rat at 3 mg/kg, sc by LC-MS/MS analysis; type: ADME, organism-based; parameters: dose 3 mg/kg, route subcutaneous; conditions: in vivo
[29] = Ratio of unbound drug level in brain to plasma in Sprague-Dawley rat at 3 mg/kg, sc by LC-MS/MS analysis; type: ADME, organism-based; parameters: dose 3 mg/kg, route subcutaneous
[30] = AUC(0 to 7 hrs) in Sprague-Dawley rat brain at 3 mg/kg, sc by LC-MS/MS analysis; type: ADME, organism-based; parameters: time < 7 hr, dose 3 mg/kg, route subcutaneous
[31] = AUC(0 to infinity) in Sprague-Dawley rat brain at 3 mg/kg, sc by LC-MS/MS analysis; type: ADME, organism-based; parameters: dose 3 mg/kg, route subcutaneous, time infinity

- AUC(0-t) at 2 h [1]: 122 ng·h/mL
- AUC(0-inf) [2]: 131 ng·h/mL
- AUC(0-t) at 2 h [3]: 3.46 ng·h/mL
- AUC(0-inf) [4]: 5.4 ng·h/mL
- Kp [5]: 1.07
- Ratio (Nucleic Acid [6]): 0.6
- Ratio [7]: 0.74
- Kp uu [8]: 0.44
- fraction unbound [9]: 0.0685
- fraction unbound [10]: 0.026
- fraction unbound [11]: 0.0876
- fraction unbound [12]: 0.0228
- AUC(0-t) at 2 h [13]: 131 ng·h/mL
- AUC(0-inf) [14]: 150 ng·h/mL
- Kp uu [15]: 0.51
- Kp uu [16]: 0.73
- Kp [17]: 2.82
- Ratio (Nucleic Acid [18]): 0.43
- Ratio (Nucleic Acid [19]): 0.78
- Ratio [20]: 1.19
- Ratio [21]: 0.94
Compound: CC(C)S(=O)(=O)N[C@H]1CCOC[C@@H]1c1ccc(-c2ccc(C#N)s2)cc1

- AUC(0-t) at 7 h [22]: 2270 ng·h/mL
- AUC(0-inf) [23]: 2280 ng·h/mL
- AUC(0-t) at 7 h [24]: 456 ng·h/mL
- AUC(0-inf) [25]: 458 ng·h/mL
- Kp [26]: 1.12
- Ratio (Nucleic Acid [27]): 0.9
- Ratio [28]: 0.5
- Kp uu [29]: 0.45
- AUC(0-t) at 7 h [30]: 2540 ng·h/mL
- AUC(0-inf) [31]: 2550 ng·h/mL
Compound: NC(=O)N1c2ccccc2C=Cc2ccccc21 [CARBAMAZEPINE]
